Assay results: publication PMC6843786, “Temporin-SHa and Its Analogs as Potential Candidates for the Treatment of Helicobacter pylori” (Biomolecules, 2019)
Where two headings read alike, the source gives them in different places. Non-standard residues stand in square brackets, D forms with d. Residues, ends and D or L forms follow the SMILES beside them.

Columns and labels:
H. pylori (ATCC 43504) [1] = conditions: ATCC 43504, 24 h
Source text: H. pylori used in this study were either the reference strain obtained from the American Type Culture Collection (ATCC 43504) or clinical strains received frozen from our collaborator Josette Raymond from Hospital Cochin, Paris. Strains were obtained from patients who underwent a gastroendoscopy performed for various gastro-intestinal disorders according to the recommendations of Haute Autorité de Santé (HAS). During the endoscopy, biopsy samples were taken from antrum and corpus. Samples were then crushed, and the material was used for bacterial culture and molecular methods. An antibiogram was performed and strains were then frozen at -80 °C in a broth with 10% glycerol. Bacteria were cultured as previously described. Briefly, H. pylori (ATCC 43504) was cultured in brain heart infusion (BHI) and incubated at 37 °C for 16 h in microaerophilic condition in BD GasPak EZ using BD GasPak EZ CampyPak container system sachets (BD Biosciences, Le Pont-de-Claix, France). For clinical strains, a sample from the frozen bacteria was streaked on Blood Agar (Base) (Sigma-Aldrich, Illkirch-Graffenstaden, France) supplemented with 5% horse defibrinated blood (Fisher Scientific, Les Ulis, France) and 2% isovitale-X (Fisher Scientific, Illkirch-Graffenstaden, France). The petri dishes were then incubated at 37 °C for 4–7 days in microaerophilic condition. Then, a colony is transferred to 3 mL Mueller Hinton (MH) broth supplemented with 10% fetal bovine serum (FBS) and 2% isovitale-X. The cultures were then incubated for 4–7 days until the bacteria grow before further experiments.
(§1) Briefly, after the growth of H. pylori in liquid culture the optical density (OD) of the bacterial suspensions were read at 600 nm and adjusted to one. Stock solutions of the peptides at 1 mM were prepared in sterile water. Bacteria were diluted in medium to reach bacterial density around 10^5 bacteria/mL. One-hundred microliters per well of bacterial suspension were then added into sterile polypropylene 96-well microplates (Greiner BioOne, Paris, France) and exposed to increasing concentrations of peptides (from zero to 100 µM, 1:2 serial dilution). […] Plates were incubated at 37 °C for 24 h for H. pylori (ATCC 43504) and for 4–7 days for the clinical strains. H. pylori was tested in microaerophilic conditions generated using micro-anaerobic BD GasPak system. At the end of the incubation, OD600nm was measured using microplate reader (Synergy Mx, Biotek, Colmar, France). The MIC was defined as the lowest concentration of drug that inhibited visible growth of the organism. Experiments were conducted in independent triplicate (n = 3).

N87 cells = experiment: In vitro toxicity assay using human gastric cells (resazurin); type: cell-based; conditions: for IC50: 48 h
Protocol: [26] Human gastric cells N87 (ATCC CRL-5822) were cultured in RPMI-1640 medium supplemented with 10% fetal calf serum (FCS), 1% L-glutamine and 1% antibiotics (all from Invitrogen, Carlsbad, CA, USA) and were routinely seeded onto 25 cm^2 flasks maintained in a 5% CO2 incubator at 37 °C. For the toxicity assay, cells grown on 25 cm^2 flasks were detached using trypsin–EDTA solution (from Thermofisher), counted using Mallasez counting chamber and seeded into 96-well cell culture plates (Greiner Bio-one) at approximately 10^4 cells per well. The cells were left to grow for 48–72 h at 37 °C in a 5% CO2 incubator until they reached confluence. Plates were then aspirated and increasing concentrations of peptides were added to the cells for 48 h at 37 °C in a 5% CO2 incubator, volume of water corresponding to the volume of peptides being used as negative control. At the end of the incubation, wells were aspirated, and cell viability was evaluated using resazurin-based in vitro toxicity assay kit (Sigma-Aldrich) following manufacturer’s instructions. Briefly, resazurin stock solution was diluted 1:10 in sterile PBS containing calcium and magnesium (PBS^++, pH 7.4) and empty wells were filled with 100 µL of the diluted solution. After 4 h incubation at 37 °C, fluorescence intensity was measured using microplate reader (Synergy Mx, Biotek) with an excitation wavelength of 530 nm and an emission wavelength of 590 nm. The fluorescence values were normalized by the controls and expressed as percent viability.

[2] = tested on: total lipids extracted from H. pylori (ATCC 43504); experiment: Lipid insertion assay (lipid monolayer, critical pressure of insertion); design: species or system biophysical; conditions: peptide 1 µM, PBS pH 7.4, from the line fits of Figure 4
Protocol: Peptide-lipid interaction was measured using reconstituted lipid monolayer at the air-water interface as previously described. Total lipids were extracted from overnight cultures of H. pylori (ATCC 43504) using Folch extraction procedure as previously described. Extracted total lipids were dried, resolubilized in chloroform:methanol (2:1, v/v) and stored at -20 °C under nitrogen. For peptide-lipid interaction assay, total lipid extract was spread using a 50 μL Hamilton's syringe at the surface of 800 μL of sterile PBS creating a lipid monolayer at the air-water interface. Lipids were added until the surface pressure reached the desired value. […] The variation of the surface pressure caused by peptide injection was then continuously monitored using a fully automated microtensiometer (μTROUGH SX, Kibron Inc., Helsinki, Finland) until reaching equilibrium (maximal surface pressure increase being usually obtained after 15-25 min). […] Variation of surface pressure was plotted as a function of initial surface pressure and the critical pressure of insertion of each peptide into H. pylori lipids was calculated as the theoretical value of initial pressure of lipid monolayer not permissive to peptide insertion, i.e., giving a variation of pressure equal to 0 mN/m.

H. pylori (ATCC 43504) [3] = tested on: H. pylori (ATCC 43504)
Protocol: as §1
(§2) It is also rich with mucus to protect it from the aggressive acidity. For this reason, the impact of mucins and pepsin on the activity of the peptides was investigated. The impact of the gastric mucins on peptide activity was evaluated using a combination of commercial porcine stomach mucins MUC2 and MUC3 (Sigma–Aldrich) at a final concentration of 1 mg/mL sterilized using 0.2 µm filter. This concentration was used based on the estimated concentration of mucins present in the mucus in vivo [27]. The effect of mucins on peptides activity was evaluated by MIC and by time killing assay as explained below. The resistance of the peptides to pepsin was tested as previously described with some changes. […] This concentration was used since it corresponds the pepsin concentration in the stomach (0.5–1 mg/mL).

H. pylori (ATCC 43504) [4] = experiment: MIC after digestion by pepsin (resistance to pepsin); conditions: ATCC 43504, 4 h, pH 2
Protocol: as §1, §2

H. pylori (ATCC 43504) [5] = tested on: H. pylori (ATCC 43504); remark: listed apart in the source
Protocol: The bactericidal activity of peptides was assessed using the time kill assay as previously described with some modifications. Briefly, overnight liquid culture of H. pylori (ATCC 43504) was prepared and an optical density measurement (OD600nm) was taken to provide an estimation of cell numbers in the culture. Bacterial suspension was then centrifuged at 3000 rpm for 5 min and the bacterial pellet was then resuspended in sterile PBS pH6 at approximatively 10^7 CFU/mL. The pH of PBS was changed from 7 to 6 with HCl to mimic the micro-environment surrounding H. pylori in the stomach. Indeed, although the lumen of the stomach is around 1–2, H. pylori is able, through the activity of its urease, to create a local micro-environment around it of pH 6 [31]. In addition to PBS pH 6, the time kill assay was also performed in PBS pH 6 containing a mixture of porcine stomach mucins MUC2 and MUC3 (at 1 mg/mL, final concentration) or in the presence of human gastric cells N87 producing human mucus. In that particular case, N87 cells were seeded onto 96-wells plates and left to grow for 48–72 h until they reached confluence. At that time, wells were aspirated and bacterial suspension in PBS pH 6 were added to the wells. In all cases, resuspended bacteria (200 µL) were treated with peptides or the conventional antibiotic amoxicillin at a final concentration corresponding to five times their MIC. Bacteria were then incubated in micro-aerobic conditions at 37 °C using GasPak units. […] The petri dishes were then incubated 16 h at 37 °C in microaerophilic conditions before counting of growing colonies. The number of surviving bacteria was calculated using the number of observed colonies and the dilution factor. The experiment was done in triplicate.

| SMILES | MIC on H. pylori (ATCC 43504) (H. pylori (ATCC 43504) [1]) | increase in toxicity to human gastric cells compared to temporin-SHa (N87 cells) | IC50 (N87 cells) | critical pressure of insertion (CPI) [2] | MIC in the Presence of mucins (H. pylori (ATCC 43504) [3]; ATCC 43504, 24 h) | increase of MIC in the presence of mucins (H. pylori (ATCC 43504) [3]; MUC2 and MUC3 at 1 mg/mL versus no mucins) | MIC after Digestion by Pepsin (H. pylori (ATCC 43504) [4]) | killing (H. pylori (ATCC 43504) [5]; 20 min, PBS pH 6, 5-times MIC) | killing (H. pylori (ATCC 43504) [5]; 3 h (180 min), PBS pH 6, 5-times MIC) | killing (H. pylori (ATCC 43504) [5]; 3 h, absence or presence of mucus, 5-times MIC) | killing (H. pylori (ATCC 43504) [5]; 9 h (540 min), 5-times MIC) |
| --- | --- | --- | --- | --- | --- | --- | --- | --- | --- | --- | --- |
| CC[C@H](C)[C@H](NC(=O)CNC(=O)[C@H](CO)NC(=O)[C@H](CC(C)C)NC(=O)[C@@H](N)Cc1ccccc1)C(=O)N[C@H](C(=O)N[C@H](C)C(=O)N[C@@H](CCSC)C(=O)N[C@@H](CC(C)C)C(=O)NCC(=O)N[C@@H](CCCCN)C(=O)N[C@@H](CC(C)C)C(=O)N[C@@H](Cc1ccccc1)C(N)=O)C(C)C [NST3, H-Phe^1-Leu^2-Ser^3-Gly^4-Ile^5-Val^6-D-Ala^7-Met^8-Leu^9-Gly^10-Lys^11-Leu^12-Phe^13-NH2] (H-FLSGIV[dA]MLGKLF-NH2) | 3.12 µM | around 3 fold | 520 ± 148 µM | 35.73 mN/m | 6.25 µM | two | >50 µM | – | – | – | – |
| CC[C@H](C)[C@H](NC(=O)[C@@H](C)NC(=O)[C@H](CO)NC(=O)[C@H](CC(C)C)NC(=O)[C@@H](N)Cc1ccccc1)C(=O)N[C@H](C(=O)NCC(=O)N[C@@H](CCSC)C(=O)N[C@@H](CC(C)C)C(=O)N[C@H](C)C(=O)N[C@@H](CCCCN)C(=O)N[C@@H](CC(C)C)C(=O)N[C@@H](Cc1ccccc1)C(N)=O)C(C)C [NST7, H-Phe^1-Leu^2-Ser^3-D-Ala^4-Ile^5-Val^6-Gly^7-Met^8-Leu^9-D-Ala^10-Lys^11-Leu^12-Phe^13-NH2] (H-FLS[dA]IVGML[dA]KLF-NH2) | – | around 15 fold | 84.7 ± 9 µM | 33 mN/m | – | – | – | – | – | – | – |
| CC[C@H](C)[C@H](NC(=O)CNC(=O)[C@H](CO)NC(=O)[C@H](CC(C)C)NC(=O)[C@@H](N)Cc1ccccc1)C(=O)N[C@H](C(=O)N[C@H](C)C(=O)N[C@@H](CCSC)C(=O)N[C@@H](CC(C)C)C(=O)N[C@H](C)C(=O)N[C@@H](CCCCN)C(=O)N[C@@H](CC(C)C)C(=O)N[C@@H](Cc1ccccc1)C(N)=O)C(C)C [NST6, H-Phe^1-Leu^2-Ser^3-Gly^4-Ile^5-Val^6-D-Ala^7-Met^8-Leu^9-D-Ala^10-Lys^11-Leu^12-Phe^13-NH2] (H-FLSGIV[dA]ML[dA]KLF-NH2) | 3.12 µM | around 15 fold | 104 ± 9.3 µM | 44.43 mN/m | – | – | – | – | – | – | – |
| CC1(C)S[C@@H]2[C@H](NC(=O)[C@H](N)c3ccc(O)cc3)C(=O)N2[C@H]1C(=O)O [amoxicillin, reference compound] | – | – | – | – | – | – | – | 9% | 34% | 31.5–55% | 75% |
| CC[C@H](C)[C@H](NC(=O)[C@@H](C)NC(=O)[C@H](CO)NC(=O)[C@H](CC(C)C)NC(=O)[C@@H](N)Cc1ccccc1)C(=O)N[C@H](C(=O)N[C@H](C)C(=O)N[C@@H](CCSC)C(=O)N[C@@H](CC(C)C)C(=O)NCC(=O)N[C@@H](CCCCN)C(=O)N[C@@H](CC(C)C)C(=O)N[C@@H](Cc1ccccc1)C(N)=O)C(C)C [NST4, H-Phe^1-Leu^2-Ser^3-D-Ala^4-Ile^5-Val^6-D-Ala^7-Met^8-Leu^9-Gly^10-Lys^11-Leu^12-Phe^13-NH2] (H-FLS[dA]IV[dA]MLGKLF-NH2) | 6.25 to 12.5 µM | around 5 fold | 306 ± 48.4 µM | 39.12 mN/m | – | – | – | – | – | – | – |
